The experiment addresses T1, Secreted chorismate mutase (Mycobacterium tuberculosis, UniProt P9WIB9).
T1 sequence (P9WIB9 whole entry): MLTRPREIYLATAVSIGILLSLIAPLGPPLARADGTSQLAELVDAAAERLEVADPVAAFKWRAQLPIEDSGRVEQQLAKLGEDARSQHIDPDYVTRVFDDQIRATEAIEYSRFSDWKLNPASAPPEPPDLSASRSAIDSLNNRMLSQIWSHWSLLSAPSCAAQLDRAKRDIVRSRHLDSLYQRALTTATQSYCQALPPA
Nature of the experiment: Inhibition of chorismate mutase in Mycobacterium tuberculosis H37Rv strain.

Our source for the Ki values is ChEMBL document CHEMBL1147973, “Ligand based virtual screening and biological evaluation of inhibitors of chorismate mutase (Rv1885c) from Mycobacterium tuberculosis H37Rv” (Bioorg Med Chem Lett, 2007).

As to `COc1cc(/C=C(\C(=O)O)c2ccc(Cl)cc2)c([N+](=O)[O-])cc1OC`, the Ki is 17.7 µM. The value for `CC(C)CC(NC(=O)C1CSC(c2ccccc2)N1C(=O)OC(C)(C)C)C(=O)O` (centres undefined) was 21.1 µM; that for `CNc1ccc(C(=O)OC)cc1[N+](=O)[O-]` was 28.8 µM; that for `COc1ccc(CCNc2c([N+](=O)[O-])cc(C(=O)O)cc2S(N)(=O)=O)cc1OC` was 5.7 µM.
